Measurements as given in patent publication US20240254138A1, “TRICYCLIC PYRIMIDINES AS CYCLIN-DEPENDENT KINASE 7 (CDK7) INHIBITORS” (JANSSEN PHARMACEUTICA NV, priority 2021, published 2024).
Like-named read-outs stand apart in the source and are kept apart here.

Key:
[1] = test system: RNA Polymerase II Serine 5 phosphorylation (Rpb1 CTD, downstream substrate of CDK7) in A549 cells; assay: Imaging-based cellular RNA PolII Ser5 phosphorylation assay in A549 cells; type: cell-based, human; settings: Homo sapiens
How it was run: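 IC50 derived by fitting % control (DMSO high, 10 μM reference low) against concentration, with Hill slope. Readout: high-content imaging of phospho-Ser5 Rpb1 CTD antibody staining in fixed, permeabilized A549 cells exposed to compound 3 h after 20 h culture in 1% FBS DMEM.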

[2] = test system: RNA Polymerase II Serine 5 phosphorylation in A549 cells overexpressing CDK7-mutant (C312S); assay: Imaging-based cellular RNA PolII Ser5 phosphorylation assay in A549 cells overexpressing CDK7-mutant (C312S); type: cell-based, human; settings: Homo sapiens
How it was run: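 Readout was automated imaging of anti-phospho-Ser5 Rpb1 CTD immunofluorescence, with IC50 fitted to % control versus concentration. Cells were A549 stably overexpressing non-covalently targetable CDK7 C312S alongside wild-type, exposed to compound 3 h at 37 °C. DMSO and 10 μM reference compound served as controls.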

[3] = molecular target: CDK7/cyclinH/MAT1 trimeric complex (Homo sapiens, UniProt P50613); assay: In vitro CDK7 assay, potency of irreversible covalent inhibitors (kinact/KI), coupled PK/LDH ADP readout at 340 nm; settings: for Ki: CDK7 (20 nM enz.) (KI, μM), 20 nM enzyme
Chain of CDK7/cyclinH/MAT1 trimeric complex (P50613 whole entry): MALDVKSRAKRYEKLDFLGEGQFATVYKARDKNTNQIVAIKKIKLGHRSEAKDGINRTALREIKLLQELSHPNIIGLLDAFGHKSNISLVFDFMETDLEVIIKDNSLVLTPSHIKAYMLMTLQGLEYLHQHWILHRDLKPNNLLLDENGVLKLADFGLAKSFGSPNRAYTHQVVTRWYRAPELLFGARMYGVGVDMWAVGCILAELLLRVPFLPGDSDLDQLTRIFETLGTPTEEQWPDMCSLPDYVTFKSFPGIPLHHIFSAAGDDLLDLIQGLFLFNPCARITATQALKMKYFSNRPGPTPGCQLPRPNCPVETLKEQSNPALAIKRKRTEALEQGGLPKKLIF
Chain of CDK7/cyclinH/MAT1 trimeric complex (P51946 whole entry partner): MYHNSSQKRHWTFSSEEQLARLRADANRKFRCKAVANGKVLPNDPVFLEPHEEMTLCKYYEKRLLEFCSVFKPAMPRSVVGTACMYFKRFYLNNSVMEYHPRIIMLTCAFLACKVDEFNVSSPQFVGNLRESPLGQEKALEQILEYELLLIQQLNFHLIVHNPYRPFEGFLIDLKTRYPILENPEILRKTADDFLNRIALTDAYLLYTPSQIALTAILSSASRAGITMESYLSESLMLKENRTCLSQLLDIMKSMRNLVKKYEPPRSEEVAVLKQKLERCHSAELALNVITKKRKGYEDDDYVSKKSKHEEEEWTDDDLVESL
Chain of CDK7/cyclinH/MAT1 trimeric complex (P51948 whole entry partner): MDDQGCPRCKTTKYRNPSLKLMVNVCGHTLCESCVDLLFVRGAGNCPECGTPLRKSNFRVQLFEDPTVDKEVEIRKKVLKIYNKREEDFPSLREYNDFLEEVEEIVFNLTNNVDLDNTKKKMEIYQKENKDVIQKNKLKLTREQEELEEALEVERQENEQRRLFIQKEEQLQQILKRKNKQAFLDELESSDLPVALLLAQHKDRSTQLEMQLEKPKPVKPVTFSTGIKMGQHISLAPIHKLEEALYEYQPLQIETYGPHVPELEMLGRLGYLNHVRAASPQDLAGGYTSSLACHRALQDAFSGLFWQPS

[4] = A549, A549 cells, wild-type CDK7, RNA PolII Ser5 phosphorylation, averaged over all measurements, read-out: CDK7_A549 Wild-type CDK7 (pIC50) (converted)
[5] = A549, A549 cells overexpressing CDK7-mutant (C312S), RNA PolII Ser5 phosphorylation, averaged over all measurements, read-out: CDK7_A549 mutant hCDK7(pIC50) (converted)
[6] = read-out: CDK7 (20 nM enz.) (kinact, s^−1), 20 nM enzyme
[7] = read-out: CDK7 (20 nM enz.) (kinact/KI, M^−1*s^−1), 20 nM enzyme

Structure (SMILES)	IC50 [1, 4] [µM]	IC50 [2, 5] [µM]	Ki [3] [µM]	kinact [3, 6] [s⁻¹]	kinact/KI [3, 7] [M⁻¹ s⁻¹]	IC50 ([1]; A549, read-out: CDK7_A549 Wild-type CDK7 (pIC50) (converted)) [µM]	IC50 ([2]; A549, read-out: CDK7_A549 mutant hCDK7(pIC50) (converted)) [µM]	kinact ([3]; read-out: CDK7 (20 nM enz.) (kinact, s^−1)) [s⁻¹]	kinact/KI ([3]; read-out: CDK7 (20 nM enz.) (kinact/KI, M^−1*s^−1)) [M⁻¹ s⁻¹]
C=CC(=O)N1CC(N2CCC(c3cc4c(cn3)OCc3c(N5CCOCC5)ccnc3N4)CC2)C1 [Compound 137]	0.126	> 10	0.0382	6.41e-05	1680				
C=CC(=O)N1CC(N2CCC(c3cc4c(cc3CO)OCc3c(N5CCOCC5)ccnc3N4)CC2)C1 [Compound 139]	0.661	> 10	0.515	6.73e-05	131				
C=CC(=O)N1CC(N2CCC(O)(c3cc(C)c4c(c3)Nc3nccc(N5CCOCC5)c3CO4)CC2)C1 [Compound 140]	0.117	> 10	0.0741	6.51e-05	878				
C=CC(=O)N1CC(N2CCC(c3cc(F)c4c(c3)Nc3nccc(N5CCS(=O)(=O)CC5)c3CO4)CC2)C1 [Compound 141]	0.178	> 10	0.16	8.36e-05	523				
C#CCCN(C)C/C=C/C(=O)N1CC(N2CCC(c3ccc4c(c3)Nc3nccc(N5CCOCC5)c3C(C)O4)CC2)C1 (stereo not shown) [Compound 146]	0.214	> 10	0.0285	5.53e-05	1940				
C#CCCN(C)C/C=C/C(=O)N1CC(N2CCC(c3ccc4c(c3)Nc3nccc(C5CCOCC5)c3C(C)O4)CC2)C1 (stereo not shown) [Compound 147]	0.288	> 10	0.0278	5.84e-05	2100				
C=CC(=O)N1CCC(N2CC(c3cc(Cl)c4c(c3)Nc3nccc(C5CCOCC5)c3CO4)C2)CC1 [Compound 148]	0.0372	5.5	0.0507	3.38e-05	666				
C=CC(=O)N1CC(N2CCC(c3ccc4c(c3)Nc3ncc(F)c(N5CCOCC5)c3CO4)CC2)C1 [Compound 151]	0.0347	> 10	0.0205	4.67e-05	2280				
C=CC(=O)N1CC(N2CCC(c3ccc4c(c3)Nc3nccc(-c5cnn(C)c5)c3C(C)(C)O4)CC2)C1 [Compound 152]	~0.0676	> 10	0.0242	4.68e-05	1940				
C=CC(=O)N1CC(N2CCC(O)(c3ccc4c(c3)Nc3nccc(N5CCOCC5)c3C(C)O4)CC2)C1 (stereo not shown) [Compound 154]	0.117	> 10	0.137	5.98e-05	438				
C=CC(=O)N1CC(N2CCC(c3cc(C)c4c(c3)Nc3ncc(C#N)c(N5CCOCC5)c3CO4)CC2)C1 [Compound 156]	0.49	> 10	0.304	9.03e-05	298				
C=CC(=O)N1CC(N2CCC(c3cc4c(c(C(N)=O)c3)OCc3c(C5CCOCC5)ccnc3N4)CC2)C1 [Compound 158]	0.126	> 3.98	0.204	7.68e-05	377				
C=CC(=O)N1CC(N2CCC(O)(c3cc(C)c4c(c3)Nc3nccc(C5CCOCC5)c3CO4)CC2)C1 [Compound 159]	0.0708	> 10	0.144	0.000115	794				
C=CC(=O)Nc1ccc(-c2cc3c(cn2)OCc2c(N4CCOCC4)ccnc2N3)cc1 [Compound 160]	0.0646	> 10	0.0393	6.88e-05	1750				
C#Cc1cc2c(cc1C1CCN(C3CN(C(=O)C=C)C3)CC1)Nc1nccc(N3CCOCC3)c1C(C)O2 (stereo not shown) [Compound 161]	0.123	> 10	0.0363	3.09e-05	851				
C=CC(=O)N1CC2(CC(c3cc(F)c4c(c3)Nc3nccc(N5CCOCC5)c3CO4)C2)C1 [Compound 162]	0.182	> 10	0.149	4.88e-05	327				
C=CC(=O)N1CCC(N2CC(c3cc4c(c(C)n3)OCc3c(N5CCOCC5)ccnc3N4)C2)CC1 [Compound 165]			0.0638			0.0575	6.03	5.16e-05	808
C=CC(=O)N1CC(N2CC(c3cc(F)c4c(c3)Nc3nccc(N5CCOCC5)c3CO4)C2)C1 [Compound 166]	0.0759	> 10	0.0262	5.16e-05	1970				
C=CC(=O)N1CC(N2CC(c3ccc4c(c3)Nc3nccc(C5CCOCC5)c3CO4)C2)C1 [Compound 167]	0.105	> 10	0.0325	5.4e-05	1660				
C#Cc1cc2c(cc1C1CCN(C3CN(C(=O)C=C)C3)CC1)Nc1nccc(C3CCOCC3)c1C(C)O2 (stereo not shown) [Compound 169]	0.0537	> 10	0.0532	3.63e-05	682				
C=CC(=O)N1CCC(N2CC(c3cc4c(c(C)n3)OCc3c(-c5cnn(C)c5)ccnc3N4)C2)CC1 [Compound 170]	0.12	7.76	0.125	3.7e-05	296				
C=CC(=O)N1CC(N2CCC(c3cc4c(cc3C#N)OCc3c(N5CCOCC5)ccnc3N4)CC2)C1 [Compound 174]	0.324	> 10	0.143	5.74e-05	401				
C#Cc1cc2c(cc1C1CCN(C3CN(C(=O)C=C)C3)CC1)Nc1nccc(N3CCOCC3)c1CO2 [Compound 175]	0.24	> 10	0.0695	4.03e-05	580				
